Experimental data: ChEMBL document CHEMBL1201862, “PubChem BioAssay data set” (2004)
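In this assay, cells in 96-well plates receive the compound at five concentrations for 48 hours. Endpoints are linearly interpolated between the surrounding concentrations. GI50: concentration for 50% inhibition of growth.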 Active and inactive are the calls of the source. No stated cut-off is given here; in the data, active = GI50 up to about 1.1 µM and inactive = higher.

Key:
Test in all cases: NCI anticancer screen, dose series, 48 h
786-0 = system: 786-0
A498 = system: A498
A549 = system: A549
ACHN = system: ACHN
BT-549 = system: BT-549
CAKI-1 = system: CAKI-1
CCRF-CEM = system: CCRF-CEM
COLO 205 = system: COLO 205
DU-145 = system: DU-145
EKVX = system: EKVX
HCT-116 = system: HCT-116
HCT-15 = system: HCT-15
HOP-62 = system: HOP-62
HT-29 = system: HT-29
K562 = system: K562
KM12 = system: KM12
M14 = system: M14
MCF7 = system: MCF7
MDA-MB-231 = system: MDA-MB-231
MDA-MB-435 = system: MDA-MB-435
MDA-N = system: MDA-N
MOLT-4 = system: MOLT-4
Malme-3M = system: Malme-3M
NCI-H226 = system: NCI-H226
NCI-H23 = system: NCI-H23
NCI-H460 = system: NCI-H460
NCI/ADR-RES = system: NCI/ADR-RES
OVCAR-3 = system: OVCAR-3
OVCAR-4 = system: OVCAR-4
OVCAR-5 = system: OVCAR-5
OVCAR-8 = system: OVCAR-8
PC-3 = system: PC-3
RPMI-8226 = system: RPMI-8226
SF-268 = system: SF-268
SF-295 = system: SF-295
SF-539 = system: SF-539
SK-MEL-28 = system: SK-MEL-28
SK-MEL-2 = system: SK-MEL-2
SK-OV-3 = system: SK-OV-3
SN12C = system: SN12C
SNB-19 = system: SNB-19
SNB-75 = system: SNB-75
SW-620 = system: SW-620
T47D = system: T47D
U-251 = system: U-251
UACC-257 = system: UACC-257
UACC-62 = system: UACC-62
UO-31 = system: UO-31

For `COc1ccccc1N/C(SCc1ccccc1)=C(/C(Cl)=C(Cl)Cl)[N+](=O)[O-]`, the GI50 (786-0) was 30.5 µM (inactive), the GI50 (A498) was 82.8 µM (inactive) and the GI50 (A549) was 30.4 µM (inactive). For the same molecule, the GI50 (ACHN) was 32.1 µM (inactive), the GI50 (BT-549) was 15.1 µM (inactive) and the GI50 (CAKI-1) was 28.8 µM (inactive). For the same molecule, the GI50 (CCRF-CEM) was 23.6 µM (inactive), the GI50 (COLO 205) was 19.5 µM (inactive) and the GI50 (DU-145) was 26.7 µM (inactive). For the same molecule, the GI50 (EKVX) was 32 µM (inactive), the GI50 (HCT-116) was 31.3 µM (inactive) and the GI50 (HCT-15) was 20.7 µM. The GI50 (HOP-62) was 28.6 µM (inactive), the GI50 (HT-29) was 20.3 µM (inactive) and the GI50 (K562) was 19.8 µM (inactive). The GI50 (KM12) was 34 µM (inactive), the GI50 (M14) was 27 µM (inactive) and the GI50 (MCF7) was 25.9 µM (inactive). The GI50 (MDA-MB-231) was 18.7 µM (inactive), the GI50 (MDA-MB-435) was 17.3 µM (inactive) and the GI50 (MDA-N) was 28.9 µM (inactive). For the same molecule, the GI50 (MOLT-4) was 28.2 µM (inactive), the GI50 (Malme-3M) was 17.4 µM (inactive) and the GI50 (NCI-H226) was 35.5 µM (inactive). The GI50 (NCI-H23) was 16.1 µM (inactive), the GI50 (NCI-H460) was 58.2 µM (inactive) and the GI50 (NCI/ADR-RES) was 24.2 µM (inactive). The GI50 (OVCAR-3) was 18.7 µM (inactive), the GI50 (OVCAR-4) was 22 µM (inactive) and the GI50 (OVCAR-5) was 33.3 µM (inactive). For the same molecule, the GI50 (OVCAR-8) was 14.4 µM (inactive), the GI50 (PC-3) was 31.8 µM (inactive) and the GI50 (RPMI-8226) was 26.6 µM (inactive). The GI50 (SF-268) was 18.6 µM (inactive), the GI50 (SF-295) was 25.7 µM (inactive) and the GI50 (SF-539) was 17.4 µM (inactive). For the same molecule, the GI50 (SK-MEL-28) was 15.1 µM (inactive), the GI50 (SK-MEL-2) was 29.6 µM (inactive) and the GI50 (SK-OV-3) was 46.5 µM (inactive). The GI50 (SN12C) was 20.3 µM (inactive), the GI50 (SNB-19) was 39.4 µM (inactive) and the GI50 (SNB-75) was 31.8 µM (inactive). For the same molecule, the GI50 (SW-620) was 17.8 µM (inactive), the GI50 (T47D) was 26.1 µM (inactive) and the GI50 (U-251) was 21.1 µM (inactive). The GI50 (UACC-257) was 85.3 µM (inactive), the GI50 (UACC-62) was 48 µM (inactive) and the GI50 (UO-31) was 16.4 µM (inactive).
